{"source": "patent US11059878B2", "about": "“Therapeutic targeting of SET1B/compass pathway for treating cancers” (Northwestern University, priority 2016, dated 2021)", "key": {"[1]": {"tested_on": "MDA-MB-231, MDA-MB-468, and LM2 cells", "test": "Colony formation of triple-negative breast cancer lines, crystal violet staining", "type": "cell-based, human", "protocol": "FIG. 6. Targeting AdipoR1 signaling in human TNBC. A) MDA-MB-231, MDA-MB-468 and MCF7 cells were infected with lentiviruses inducibly expressing either GFP or GFP-ADIPOR1. After neomycin selection, the stably transfected cells were treated with DMSO or doxycycline (DOX). The induced GFP or GFP-AdipoR1 was determined by western blot in three cell lines, n=3. B) The proliferation ability of GFP or GFP-ADIPOR1 inducible cell lines were determined by cell counting, n=3, Student's t test was used for statistical analysis. **P<0.01; *P<0.05. Error bars represent sd. C) The GFP or GFP-ADIPOR1 inducible cell lines were seeded in 6-well plates at the concentration of 4×10^4 living cells per well. The cells were then treated with DMSO or doxycycline. The cell survival was shown six days after doxycycline treatment by crystal violet staining. D) Quantification of crystal violet staining was determined as described in materials section. n=4, Student's t test was used for statistical analysis. **P<0.01; *P<0.05. Error bars represent sd. […] F) Quantification of crystal violet staining was determined as described in materials section. n=4, Student's t test was used for statistical analysis. **P<0.01; *P<0.05. […] They were treated with either PBS or AdipoRon (50 mg/kg) for 10 times, and the tumor size (G) and animal survival (H) was monitored. Tumor growth was measured two weeks after inoculation (n=7). […]"}, "[2]": {"details": "mice treated with 50 mg/kg AdipoRon; cited from earlier work"}, "LM2 cells": {"tested_on": "LM2 cells", "test": "LM2 cell fat pad xenograft in nude mice, treatment assay", "type": "in vivo", "protocol": "FIG. 6. Targeting AdipoR1 signaling in human TNBC. A) MDA-MB-231, MDA-MB-468 and MCF7 cells were infected with lentiviruses inducibly expressing either GFP or GFP-ADIPOR1. After neomycin selection, the stably transfected cells were treated with DMSO or doxycycline (DOX). The induced GFP or GFP-AdipoR1 was determined by western blot in three cell lines, n=3. B) The proliferation ability of GFP or GFP-ADIPOR1 inducible cell lines were determined by cell counting, n=3, Student's t test was used for statistical analysis. **P<0.01; *P<0.05. Error bars represent sd. C) The GFP or GFP-ADIPOR1 inducible cell lines were seeded in 6-well plates at the concentration of 4×10^4 living cells per well. The cells were then treated with DMSO or doxycycline. The cell survival was shown six days after doxycycline treatment by crystal violet staining. D) Quantification of crystal violet staining was determined as described in materials section. n=4, Student's t test was used for statistical analysis. **P<0.01; *P<0.05. Error bars represent sd. E) MDA-MB-231, MDA-MB-468, and LM2 cells were seeded in 6-well plates at the concentration of 200 cells per well. […] F) Quantification of crystal violet staining was determined as described in materials section. n=4, Student's t test was used for statistical analysis. **P<0.01; *P<0.05. […] They were treated with either PBS or AdipoRon (50 mg/kg) for 10 times, and the tumor size (G) and animal survival (H) was monitored. Tumor growth was measured two weeks after inoculation (n=7). […]\nFIG. 14. […] They were treated with either PBS or AdipoRon (50 mg/kg and 100 mg/kg, respectively) for 10 times, and the tumor size was monitored. Tumor growth was measured two weeks after inoculation (n=8). […]\nAnimal experiments. […] Tumor growth was monitored every other day two weeks after inoculation. […] They were treated with either PBS or AdipoRon (50 mg/kg) for 10 times, and the tumor size (G) and animal survival (H) was monitored. Tumor growth was measured two weeks after inoculation."}, "[3]": {"details": "cited from earlier work"}, "SET1B": {"tested_on": "SET1B", "test": "SET1B protein level by western blot after AdipoRON treatment", "type": "cell-based, human", "details": "MDA-MB-231 cells, various concentrations for 24 hours", "protocol": "FIG. 13. Depletion of AdipoR1 by CRISPR-CAS9 partially rescued cell death induced by SET1B depletion. A) Design of CRIPSR-Cas9 targeting ADIPOR1 gene locus. B) PCR was performed for genotyping of AdipoR1 wildtype and deleted cells. C) Total RNA was extracted from AdipoR1-WT and AdipoR1-KO cells and subjected to RNA-seq, three replicates. Representative tracks of AdipoR1 gene are shown. D) SET1B was further knocked down in ADIPOR1-WT and ADIPOR1-KO cells, respectively. After puromycin selection for 48 hours, 1×10^5 cells were seeded in 6-well plate, the cell viability of SET1B knocked down cells was determined by cell counting. E) The cells from panel C were seeded in 6-well plate (1×10^4) and grown for one week before crystal violet staining. F) Quantification of crystal violet staining was determined as described in materials section. n=4, Student's t test was used for statistical analysis. **P<0.01; *P<0.05. Error bars represent sd. […] H) Cell morphology of GFP or GFP-AdipoR1 inducible cell lines after DMSO or Dox treatment, n=3. I) MCF7 cells were seeded in 6-well plates at the concentration of 500 cells per well. The cells were treated with either DMSO or AdipoRON (10 μM) for three weeks, and the colonies were stained with crystal violet. J) MDA-MB-231 cells were treated with various concentrations of AdipoRON for 24 hours. The protein level of SET1B was determined by western blot. […]"}}, "data": [{"smiles": "O=C(COc1ccc(C(=O)c2ccccc2)cc1)NC1CCN(Cc2ccccc2)CC1", "note": "[AdipoRon]", "values": [{"measurement": "anti-tumor effect in vitro", "setting": "[1]; 10 μM", "value": "dramatic anti-tumor effect"}, {"measurement": "colony formation ability", "setting": "[1]; AdipoRON 10 μM for three weeks, multiple triple-negative breast cancer lines, 200 cells per well", "value": "significantly inhibited"}, {"measurement": "plasma concentration", "setting": "[2]", "value": 11.6, "unit": "µM"}, {"measurement": "drug effect (tumor size) by intraperitoneal injection", "setting": "LM2 cells; intraperitoneal injection, 50 mg/kg and 100 mg/kg, 10 times", "value": "consistent result"}, {"measurement": "tumor size / tumor growth", "setting": "LM2 cells; oral 50 mg/kg, started 12 days after transplantation", "value": "significantly reduced"}, {"measurement": "animal survival / lifespan", "setting": "LM2 cells; oral 50 mg/kg, started 12 days after transplantation, 50 mg/kg", "value": "significantly increased"}, {"measurement": "toxicity in vivo", "setting": "[3]", "value": "low toxicity"}, {"measurement": "SET1B protein level", "setting": "SET1B", "value": "does not affect"}]}]}
